US9163008B2, “Pyrimidines as sodium channel blockers” (Purdue Pharma, L.P., priority 2011, dated 2015)
Like-named read-outs stand apart in the source and are kept apart here.

What was measured:
[1] = biological target: hNav1.7 (Homo sapiens (Human), UniProt Q15858); assay: Electrophysiology (EP) whole-cell patch clamp assay; assay type: cell-based; conditions: for Ki: read-out: Nav1.7 Activity EP assay Ki; for Kd: resting block dissociation constant, read-out: Nav1.7 Activity EP assay Kr
Experimental: The hNav1.7 expressing HEK-293 cells were plated on 35 mm culture dishes pre-coated with poly-D-lysine in standard DMEM culture media (Mediatech, Inc., Herndon, Va.) and incubated in a 5% CO2 incubator at 37° C. Cultured cells were used approximately 12-48 h after plating.
On the day of experimentation, the 35 mm dish was placed on the stage of an inverted microscope equipped with a perfusion system that continuously perfuses the culture dish with fresh recording media. A gravity driven superfusion system was used to apply test solutions directly to the cell under evaluation. This system consists of an array of glass pipette glass connected to a motorized horizontal translator. The outlet of the shooter was positioned approximately 100 μm from the cell of interest.
Gigaseals were formed and the whole-cell configuration was established in voltage clamp mode, and membrane currents generated by hNav1.7 were recorded in gap-free mode. […] Signals were sampled at 50 kHz and low pass filtered at 3 kHz.
To determine a membrane potential at which the majority of channels are in the resting state, a standard steady-state inactivation (SSIN) protocol was run using 100 ms prepulses×10 mV depolarizing steps. The holding potential for testing resting block (Vh1) was 20 mV more hyperpolarized than the first potential where inactivation is observed with the inactivation protocol.
From this holding potential a standard I-V protocol was run to determine the potential at which the maximal current (Imax) was elicited. This potential was the test potential (Vt).
The fractional response was calculated as follows: FR=I(after drug)/I(control),
where I is the peak current amplitude and was used for estimating resting block dissociation constant, Kr: Kr=[drug]*{FR/(1−FR)},
To assess the block of inactivated channels the holding potential was depolarized such that 20-50% of the current amplitude was reduced when pulsed to the same Vt as above. The magnitude of this depolarization depends upon the initial current amplitude and the rate of current loss due to slow inactivation. This was the second holding potential (Vh2). The current reduction was recorded to determine the fraction of available channels at this potential (h). h=I@Vh2/Imax.
At this membrane voltage a proportion of channels are in the inactivated state, and thus inhibition by a blocker includes interaction with both resting and inactivated channels.
To determine the potency of the test compound on inactivated channels, a series of currents were elicited by 10 ms voltage steps from Vh2 to Vt every 10-15 seconds. After establishing a stable baseline, the low concentration of the compound was applied. Multiple cumulative concentrations may have to be applied to identify a concentration that will block between 40-60% of the current. Washout was attempted to re-establish baseline. Fractional responses were measured with respect to a projected baseline to determine Kapp. Kapp=[drug]*{FR/(1−FR)},
This Kapp value, along with the calculated Kr and h values, were used to calculate the affinity of the compound for the inactivated channels (Ki) using the following equation: Ki=(1−h)/((1/Kapp)−(h/Kr)).
Vehicle solution used to establish base line was also contacting 0.3% DMSO.
Data was analyzed off-line using Clampfit software (pClamp, v. 8; Axon Instruments) and graphed using GraphPad Prizm (v. 4.0 or higher) software.

[2] = biological target: human Nav1.7 (Homo sapiens (Human), UniProt Q15858); assay: FLIPR sodium dye assay (CoroNa Green) with KCl and test article pre-incubation; assay type: cell-based; conditions: read-out: Nav1.7 Activity FLIPR assay IC50
[3] = affinity for inactivated channels, hNav1.7 HEK-293
[4] = recombinant human Nav1.7 in HEK293, veratridine and scorpion venom agonists

Sequence of human Nav1.7 (Q15858 other isoform, or with tags, fused parts or gaps): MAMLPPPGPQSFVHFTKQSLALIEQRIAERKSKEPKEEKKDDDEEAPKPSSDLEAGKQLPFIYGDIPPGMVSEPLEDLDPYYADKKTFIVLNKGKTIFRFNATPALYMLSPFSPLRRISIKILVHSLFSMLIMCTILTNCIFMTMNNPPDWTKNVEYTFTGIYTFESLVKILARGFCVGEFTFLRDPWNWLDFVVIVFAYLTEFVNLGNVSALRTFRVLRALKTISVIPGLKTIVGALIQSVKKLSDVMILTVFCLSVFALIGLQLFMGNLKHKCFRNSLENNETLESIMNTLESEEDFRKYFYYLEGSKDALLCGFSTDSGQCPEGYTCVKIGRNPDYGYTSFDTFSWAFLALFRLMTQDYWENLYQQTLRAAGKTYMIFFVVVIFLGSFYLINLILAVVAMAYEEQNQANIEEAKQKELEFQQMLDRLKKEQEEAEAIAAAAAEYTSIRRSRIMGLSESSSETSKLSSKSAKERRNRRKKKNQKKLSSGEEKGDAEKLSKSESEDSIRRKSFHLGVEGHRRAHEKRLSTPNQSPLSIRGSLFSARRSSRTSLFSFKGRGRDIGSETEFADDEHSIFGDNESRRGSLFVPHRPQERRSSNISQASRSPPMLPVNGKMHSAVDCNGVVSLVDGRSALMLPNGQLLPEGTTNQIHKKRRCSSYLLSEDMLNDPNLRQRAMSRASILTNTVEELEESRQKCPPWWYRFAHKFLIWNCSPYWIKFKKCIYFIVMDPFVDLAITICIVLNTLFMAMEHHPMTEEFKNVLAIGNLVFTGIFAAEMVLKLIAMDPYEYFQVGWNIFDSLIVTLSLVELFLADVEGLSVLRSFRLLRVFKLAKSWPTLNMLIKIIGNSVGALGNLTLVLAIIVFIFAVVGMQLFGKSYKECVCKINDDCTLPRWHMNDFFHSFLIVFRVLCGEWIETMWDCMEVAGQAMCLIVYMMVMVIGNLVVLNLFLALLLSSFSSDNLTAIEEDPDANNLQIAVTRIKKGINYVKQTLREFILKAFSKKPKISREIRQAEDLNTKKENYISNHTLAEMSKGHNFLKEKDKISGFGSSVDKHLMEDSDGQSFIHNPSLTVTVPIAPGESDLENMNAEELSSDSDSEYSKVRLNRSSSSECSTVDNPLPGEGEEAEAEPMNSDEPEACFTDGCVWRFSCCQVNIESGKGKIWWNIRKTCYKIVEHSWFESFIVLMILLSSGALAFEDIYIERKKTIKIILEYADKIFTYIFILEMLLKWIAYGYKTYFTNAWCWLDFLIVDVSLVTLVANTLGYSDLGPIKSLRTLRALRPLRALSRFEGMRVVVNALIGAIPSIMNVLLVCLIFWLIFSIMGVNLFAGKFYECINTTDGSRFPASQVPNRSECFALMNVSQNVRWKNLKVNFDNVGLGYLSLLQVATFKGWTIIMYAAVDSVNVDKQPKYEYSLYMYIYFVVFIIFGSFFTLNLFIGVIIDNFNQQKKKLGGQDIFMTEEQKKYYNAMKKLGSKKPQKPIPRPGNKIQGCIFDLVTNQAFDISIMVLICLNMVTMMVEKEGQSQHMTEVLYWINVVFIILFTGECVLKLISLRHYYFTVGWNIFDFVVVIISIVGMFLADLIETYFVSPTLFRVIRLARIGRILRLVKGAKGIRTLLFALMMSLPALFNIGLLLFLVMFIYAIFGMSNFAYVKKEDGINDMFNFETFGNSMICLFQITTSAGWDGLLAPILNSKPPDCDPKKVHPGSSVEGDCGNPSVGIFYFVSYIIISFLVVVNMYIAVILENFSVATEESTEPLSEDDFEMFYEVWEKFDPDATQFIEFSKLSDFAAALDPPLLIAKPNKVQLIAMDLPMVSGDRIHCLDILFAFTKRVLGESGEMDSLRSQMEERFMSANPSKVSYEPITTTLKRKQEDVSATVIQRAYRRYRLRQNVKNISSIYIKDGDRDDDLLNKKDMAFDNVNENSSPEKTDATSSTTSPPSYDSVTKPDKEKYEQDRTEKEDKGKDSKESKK
Sequence of hNav1.7 (Q15858 other isoform, or with tags, fused parts or gaps): as above

Structure (SMILES)	Ki [1]	Kd ([1]; hNav1.7 HEK-293)	IC50 [2]	Ki [1, 3]	IC50 [2, 4]
C[C@H](Nc1cc(C(N)=O)nc(-c2ccc(Oc3ccc(F)cc3)cc2)n1)C(N)=O [Cpd No. 1, (S)-6-((1-amino-1-oxopropan-2-yl)amino)-2-(4-(4-fluorophenoxy)phenyl)pyrimidine-4-carboxamide]	57 nM	4220 nM	420 nM	–	–
NC(=O)c1cc(N2CCC[C@H]2C(N)=O)nc(-c2ccc(Oc3ccc(F)cc3)cc2)n1 [Cpd No. 5, (S)-6-(2-carbamoylpyrrolidin-1-yl)-2-(4-(4-fluorophenoxy)phenyl)pyrimidine-4-carboxamide]	–	7950 nM	260 nM	78 nM	–
C[C@H](Nc1cc(C(N)=O)nc(-c2ccc(Oc3ccc(C(F)(F)F)cn3)cc2)n1)C(N)=O [Cpd No. 13, (S)-6-((1-amino-1-oxopropan-2-yl)amino)-2-(4-((5-(trifluoromethyl)pyridin-2-yl)oxy)phenyl)pyrimidine-4-carboxamide]	–	169000 nM	990 nM	420 nM	–
C[C@@H](Nc1cc(C(N)=O)nc(-c2ccc(Oc3ccc(F)cc3)cc2)n1)C(N)=O [Cpd No. 21, (R)-6-((1-amino-1-oxopropan-2-yl)amino)-2-(4-(4-fluorophenoxy)phenyl)pyrimidine-4-carboxamide]	230 nM	7250 nM	600 nM	–	–
C[C@H](Nc1cc(C(=O)O)nc(-c2ccc(Oc3ccc(F)cc3)cc2)n1)C(N)=O [Cpd No. 35, (S)-6-((1-amino-1-oxopropan-2-yl)amino)-2-(4-(4-fluorophenoxy)phenyl)pyrimidine-4-carboxylic acid]	–	102000 nM	–	20500 nM	> 20000 nM
C[C@H](Nc1cc(C(=O)O)nc(-c2ccc(Oc3ccc(F)cc3)cc2)n1)C(=O)O [Cpd No. 40, (S)-6-((1-carboxyethyl)amino)-2-(4-(4-fluorophenoxy)phenyl)pyrimidine-4-carboxylic acid]	–	110000 nM	–	41000 nM	> 20000 nM
NC(=O)c1cc(NC[C@H](O)C(N)=O)nc(-c2ccc(Oc3ccc(F)cc3)cc2)n1 [Cpd No. 50, (S)-6-((3-amino-2-hydroxy-3-oxopropyl)amino)-2-(4-(4-fluorophenoxy)phenyl)pyrimidine-4-carboxamide]	–	–	–	–	> 20000 nM
NC(=O)c1cc(NC[C@H](O)C(=O)O)nc(-c2ccc(Oc3ccc(F)cc3)cc2)n1 [Cpd No. 51, (S)-3-((6-carbamoyl-2-(4-(4-fluorophenoxy)phenyl)pyrimidin-4-yl)amino)-2-hydroxypropanoic acid]	–	–	–	–	> 20000 nM
C[C@H](Nc1cc(C(N)=O)nc(-c2ccc(Oc3ccc(Cl)cn3)cc2)n1)C(N)=O [Cpd No. 63, (S)-6-((1-amino-1-oxopropan-2-yl)amino)-2-(4-((5-chloropyridine-2-yl)oxy)phenyl)pyrimidine-4-carboxamide]	–	28000 nM	790 nM	600 nM	–
C[C@H](Nc1cc(C(N)=O)nc(-c2ccc(Oc3ccc(Cl)cc3F)cc2)n1)C(N)=O [Cpd No. 64, (S)-6-((1-amino-1-oxopropan-2-yl)amino)-2-(4-(4-chloro-2-fluorophenoxy)phenyl)pyrimidine-4-carboxamide]	–	730 nM	180 nM	16 nM	–
C[C@H](Nc1cc(C(N)=O)nc(-c2ccc(O)cc2)n1)C(N)=O [Cpd No. 65, 6-((S)-1-Carbamoyl-ethylamino)-2-(4-hydroxy-phenyl)-pyrimidine-4-carboxylic acid amide]	–	–	> 20000 nM	–	–
C[C@H](Nc1cc(C(N)=O)nc(-c2ccc(Oc3ccc(C#N)cc3)cc2)n1)C(N)=O [Cpd No. 66, 6-((S)-1-Carbamoyl-ethylamino)-2-[4-(4-cyano-phenoxy)-phenyl]-pyrimidine-4-carboxylic acid amide]	–	–	–	–	410 nM
C[C@H](Nc1cc(C(N)=O)nc(Oc2ccc(Cl)cc2-c2ccnc(N)c2)n1)C(N)=O [Cpd No. 67, (S)-6-((1-amino-1-oxopropan-2-yl)amino)-2-(2-(2-aminopyridin-4-yl)-4-chlorophenoxy)pyrimidine-4-carboxamide]	–	–	–	–	> 20000 nM
C[C@H](Nc1cc(C(N)=O)nc(-c2ccnc(Oc3ccc(F)cc3)c2)n1)C(N)=O [Cpd No. 68, (S)-6-((1-amino-1-oxopropan-2-yl)amino)-2-(2-(4-fluorophenoxy)pyridin-4-yl)pyrimidine-4-carboxamide]	–	–	–	–	> 20000 nM
C[C@H](Nc1cc(C(N)=O)nc(N2CCN(C(c3ccc(F)cc3)c3ccc(F)cc3)CC2)n1)C(N)=O [Cpd No. 71, (S)-6-((1-amino-1-oxopropan-2-yl)amino)-2-(4-(bis(4-fluorophenyl)methyl)piperazin-1-yl)pyrimidine-4-carboxamide]	–	–	–	–	> 20000 nM
C[C@H](Nc1cc(C(N)=O)nc(Oc2ccc(C(F)(F)F)cc2-c2ccnnc2)n1)C(N)=O [Cpd No. 72, (S)-6-((1-amino-1-oxopropan-2-yl)amino)-2-(2-(pyridazin-4-yl)-4-(trifluoromethyl)phenoxy)pyrimidine-4-carboxamide]	–	–	1420 nM	–	–
NC(=O)c1cc(N2CCC[C@H]2C(N)=O)nc(-c2ccc(Oc3ccc(C(F)(F)F)cc3)cc2)n1 [Cpd No. 91, (S)-6-(2-carbamoylpyrrolidin-1-yl)-2-(4-(4-(trifluoromethyl)phenoxy)phenyl)pyrimidine-4-carboxamide]	–	–	200 nM	–	–
NC(=O)c1cc(N2c3ccccc3C[C@H]2C(N)=O)nc(-c2ccc(Oc3ccc(F)cc3)cc2)n1 [Example 36]	–	–	–	–	> 20000 nM
C[C@H](Nc1cc(C(N)=O)nc(N2CCC3(CC2)Cc2ccccc2C3)n1)C(N)=O [compound 73, (S)-6-((1-amino-1-oxopropan-2-yl)amino)-2-(1,3-dihydrospiro[indene-2,4′-piperidin]-1′-yl)pyrimidine-4-carboxamide]	–	–	1800 nM	–	–
NC(=O)c1cc(N2CCC[C@H]2C(N)=O)nc(-c2ccc(Oc3ccc(Cl)cc3F)cc2)n1 [compound 78, (S)-6-(2-carbamoylpyrrolidin-1-yl)-2-(4-(4-chloro-2-fluorophenoxy)phenyl)pyrimidine-4-carboxamide]	–	–	120 nM	–	–
C[C@H](Nc1cc(C(N)=O)nc(N2CCC(Oc3ccc(C#N)cc3)CC2)n1)C(N)=O [compound 100, (S)-6-((1-amino-1-oxopropan-2-yl)amino)-2-(4-(4-cyanophenoxy)piperidin-1-yl)pyrimidine-4-carboxamide]	–	–	–	–	4570 nM
